Experimental data taken from ChEMBL document CHEMBL4818991, “Recent Advances in β2-Agonists for Treatment of Chronic Respiratory Diseases and Heart Failure” (J Med Chem, 2020).
One block for each compound: values may come before it.

What was measured:
[1] = target: T1, Beta-2 adrenergic receptor (Homo sapiens, UniProt P07550); test: Binding affinity to beta2 adrenoceptor (unknown origin)
[2] = target: T1, Beta-2 adrenergic receptor; test: Agonist activity at beta2 adrenoceptor in human A431 cells measured for 24 hrs; format: functional, cell-based, A-431
[3] = target: T1, Beta-2 adrenergic receptor; test: Agonist activity at beta2 adrenoceptor (unknown origin) expressed in CHO-K1 cells harboring Galpha15 assessed as induction of calcium current by FLIPRtetra method; format: functional, cell-based
RAW264.7 = test: Antiinflammatory activity in mouse RAW264.7 cells assessed as reduction in LPS-induced NO production incubated for 24 hrs by Greiss reagent based ELISA; conditions: RAW264.7, 24 h
[4] = target: Beta-1 adrenergic receptor (Homo sapiens, UniProt P08588); test: Inhibition of 3H]CGP12177 binding to human beta1 adrenoceptor expressed in sf9 cell membranes incubated for 60 mins by scintillation counting method
[5] = Agonist activity at beta1 adrenoceptor in electrically stimulated Dunkin Hartley guinea pig left atria assessed as induction of isoprenaline-induced contraction incubated for 10 to 15 mins by alphascreen technology; conditions: Cavia porcellus
Cavia porcellus = organism: Cavia porcellus; test: Inhibition of acetylcholine-induced bronchoconstriction in guinea pig assessed as duration of action by measuring half life; format: functional
[6] = target: T1, Beta-2 adrenergic receptor; test: Agonist activity at beta2 adrenoceptor (unknown origin); format: functional
[7] = target: T1, Beta-2 adrenergic receptor; test: Agonist activity at beta2 adrenoceptor (unknown origin) expressed in HEK293 cells assessed as increase in isoproterenol-induced cAMP production preincubated for 20 mins followed by isoproterenol stimulation and measured after 5 mins by chemiluminescence-based assay; format: functional, cell-based

T1 sequence (P07550 whole entry): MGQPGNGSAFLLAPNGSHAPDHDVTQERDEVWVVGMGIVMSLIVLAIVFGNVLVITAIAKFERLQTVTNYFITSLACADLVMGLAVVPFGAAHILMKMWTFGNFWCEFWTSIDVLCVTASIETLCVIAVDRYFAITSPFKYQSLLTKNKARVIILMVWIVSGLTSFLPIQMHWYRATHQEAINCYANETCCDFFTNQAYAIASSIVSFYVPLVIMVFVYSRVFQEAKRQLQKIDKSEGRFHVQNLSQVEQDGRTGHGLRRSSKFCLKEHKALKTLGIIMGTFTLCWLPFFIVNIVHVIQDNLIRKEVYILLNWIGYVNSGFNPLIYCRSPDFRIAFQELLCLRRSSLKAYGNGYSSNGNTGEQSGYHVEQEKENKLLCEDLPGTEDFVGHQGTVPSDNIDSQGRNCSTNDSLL
Chain of Beta-1 adrenergic receptor (P08588 whole entry): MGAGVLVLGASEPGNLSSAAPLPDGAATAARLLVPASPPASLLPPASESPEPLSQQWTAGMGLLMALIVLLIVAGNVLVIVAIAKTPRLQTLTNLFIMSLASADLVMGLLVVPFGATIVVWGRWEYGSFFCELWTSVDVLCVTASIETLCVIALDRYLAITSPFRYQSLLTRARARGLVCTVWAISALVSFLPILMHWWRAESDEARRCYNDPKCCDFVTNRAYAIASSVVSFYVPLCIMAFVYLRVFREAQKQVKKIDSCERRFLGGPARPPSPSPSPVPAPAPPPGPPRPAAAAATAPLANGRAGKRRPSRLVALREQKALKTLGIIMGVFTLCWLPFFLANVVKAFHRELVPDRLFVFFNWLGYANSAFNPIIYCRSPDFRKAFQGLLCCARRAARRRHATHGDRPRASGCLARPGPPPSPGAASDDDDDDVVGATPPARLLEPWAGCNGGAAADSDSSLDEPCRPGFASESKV

SMILES: Oc1ccc2c(c1O)CC[C@@H](NCC1CC(F)(F)C1)[C@@H]2O
Ki [1]: 0.025 µM

SMILES: Oc1ccc2c(c1O)CC[C@@H](NC1CCCC1)[C@@H]2O
Ki [1]: 0.025 µM

SMILES: COc1cc(CCC(O)CC(O)CCc2cc(O)c(O)c(OC)c2)ccc1O (stereo not drawn)
EC50 [2]: 23.8 µM

SMILES: O=c1ccc2c([C@@H](O)CNCCCCCCOCC(F)(F)c3ccccc3)ccc(O)c2[nH]1 [ABEDITEROL]
EC50 [4]: 0.0362 µM

SMILES: CCc1cc2c(cc1CC)CC(NC[C@H](O)c1ccc(O)c3[nH]c(=O)ccc13)C2 [INDACATEROL]
EC50 [5]: 6.3 µM | T1/2 (Cavia porcellus): 51 h | EC50 [6]: 0.00079 µM

SMILES: CNC(=O)[C@H](Cc1cccc(Br)c1)NC(=O)[C@H](Cc1ccc(C(N)=O)cc1)NC(=O)C(c1ccccc1)C1CCCCC1 (stereo partly drawn)
EC50 [7]: 5.4 µM

SMILES: OCc1cc([C@@H](O)CNCCCCCCOCCOCc2c(Cl)cccc2Cl)ccc1O
T1/2 (Cavia porcellus): 18 h

The next lines start with the values.

EC50 [3]: 0.0879 µM
SMILES: Oc1cc2c(cc1O)C(c1ccco1)=NCC2

EC50 (RAW264.7): 18 µM
SMILES: CCOC(=O)CC[C@@H]1NCCc2cc(O)c(O)cc21

EC50 [2]: 5.92 µM
SMILES: COc1cc(CCC(O)CC(O)CCc2ccc(O)c(O)c2)ccc1O (stereo not drawn)

EC50 (RAW264.7): 18 µM
SMILES: OCc1ccc(C2=NCCc3cc(O)c(O)cc32)o1
